According to patent US20100267712A1, “ISOINDOLINE COMPOUNDS FOR THE TREATMENT OF SPINAL MUSCULAR ATROPHY AND OTHER USES” (The United States of America, as represented by the …, priority 2007, published 2010):
pEC50: −log10 of the molar value.

How the values were obtained:
SMN protein [1] = conditions: cited from earlier work
SMA model mouse fetuses = conditions: administered in utero; cited from earlier work
[2] = tested on: SMN2-linked luciferase-reporter gene construct; assay: SMN Splice Reporter Assay (SMN2-linked luciferase reporter); format: cell-based; conditions: for pEC50: cervical carcinoma cell lines, SMN2 splice luciferase reporter; for Fold Increase: fold-increase of luciferase over baseline reading of transformed cells without any test compound
In short: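 Cervical carcinoma cells carrying an SMN2-luciferase splicing reporter, in-frame only with exon 7 inclusion, were treated with compound. Luciferase activity reported as fold increase over untreated transformed cells, with EC50 derived.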

SMN protein [3] = assay: Western blot of total cellular SMN protein in SMA type I fibroblasts; format: cell-based, human; conditions: 48 hours, 3813 cells
Method: Western blots were performed using standard methods. SMA type I fibroblasts (3813 cells; Coriell Cell Repositories) were treated with compounds for 48 hours. Monoclonal SMN anti-SMN antibody 4B7 (Wolstencroft et al., Hum Mil Genet, 14:1199-1210 (2005)) was used to identify SMN protein. Tubulin was used as an internal normalization standard. DMSO treatment serves as the negative control.

[4] = tested on: SMN-containing gems in type 1 SMA patient fibroblasts (3813 cells); assay: SMN-containing gem count in SMA patient fibroblasts; format: cell-based, human; conditions: 48 hours, 3813 fibroblasts
Description: SMN protein can be found in punctate nuclear particles called “gems” (Liu and Dreyfuss, EMBO J, 15 (14): 3555-3565 (1996)). In fibroblast cells derived from SMA patients, the number of gems corresponds to disease severity as follows: severe type 1 patients have approximately 5 gems per 100 nuclei; mild type 3 patients have 20-50 gems per 100 nuclei; normal individuals have approximately 100-150 gems per 100 nuclei (Coovert et al., Hum Mol Genet, 6 (8): 1205-1214 (1997), Young et al., Exp Cell Res, 265 (2): 252-261 (2001)).
Gems are detectable by immunohistochemistry and gem counts in patient fibroblasts have been used to test the ability of compounds to increase SMN protein levels (Mattis et al., Hum Genet, 120: 589-601 (2006)). Following these methods, fibroblast cells from a type 1 SMA patient (3813 cells, Coriell Cell Repositories) were treated for 48 hours with a compound of the invention. The cells were then fixed and incubated with a monoclonal antibody against SMN (4B7, Wolstencroft et al., Hum Mol Genet, 14: 1199-1210 (2005)). A FITC-conjugated anti-mouse secondary antibody was used to visualize the labeled gems. A positive control in these experiments was provided by fibroblasts from the same patient treated with 1000 μM valproic acid.

[5] = tested on: translational stop codon read-through, human SMN2 open reading frame-luciferase; assay: Translational read-through luciferase reporter assay (luciferase preceded by the open reading frame of the human SMN2 gene); format: cell-based
In short: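 Cell-based reporter with luciferase downstream of the human SMN2 open reading frame, carrying a translational stop codon within the coding sequence; compounds promoting stop-codon read-through yield active luciferase, detected by chemiluminescence.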

SMILES | pEC50 [5] | pEC50 [2] | production of SMN from the endogenous SMN2 gene (SMN protein [1]; SMA patient fibroblasts) | level of expression of SMN protein (SMN protein [1]; cultured cells, Lunn et al. 2004) | survival of SMA model mouse fetuses (SMA model mouse fetuses) | luciferase activity ([2]; result in words) | SMN:Tubulin ratio as % of Vehicle Control (SMN protein [3]; 1 μM) [%] | Average number of gems per 100 nuclei ([4]; 0.1 μM compound) | maximal fold induction [5] | Fold Increase [2] | SMN:Tubulin ratio as % of Vehicle Control (SMN protein [3]; 3 μM) [%] | Average number of gems per 100 nuclei ([4]; 1 μM compound) | SMN:Tubulin ratio as % of Vehicle Control (SMN protein [3]; 0.1 μM) [%]
CC(C(=O)O)c1ccc(N2Cc3ccccc3C2=O)cc1 (stereo not drawn) [Indoprofen, indoprofen] | – | – | increase in production of SMN | increases the level of expression of SMN protein | increase survival | increases luciferase activity | – | – | – | – | – | – | –
CC(C)Oc1ccc2c(c1)C(=O)N(c1ccc3ccn(C)c3c1)C2 [Example 124326] | 6.89 | 6.77 | – | – | – | – | – | – | 0.946 | 1.666 | 147.687 | 98 | –
COc1ccc2c(c1)C(=O)N(c1ccc3cn[nH]c3c1)C2 [Example 120602] | 5.96 | 6.81 | – | – | – | – | 123.67 | 68 | 2.12 | 1.412 | – | – | –

The remaining compounds from weak to strong by pEC50 [5], led by results:

pEC50 [5] | pEC50 [2] | SMILES | production of SMN from the endogenous SMN2 gene (SMN protein [1]; SMA patient fibroblasts) | level of expression of SMN protein (SMN protein [1]; cultured cells, Lunn et al. 2004) | survival of SMA model mouse fetuses (SMA model mouse fetuses) | luciferase activity ([2]; result in words) | SMN:Tubulin ratio as % of Vehicle Control (SMN protein [3]; 1 μM) [%] | Average number of gems per 100 nuclei ([4]; 0.1 μM compound) | maximal fold induction [5] | Fold Increase [2] | SMN:Tubulin ratio as % of Vehicle Control (SMN protein [3]; 3 μM) [%] | Average number of gems per 100 nuclei ([4]; 1 μM compound) | SMN:Tubulin ratio as % of Vehicle Control (SMN protein [3]; 0.1 μM) [%]
5.37 | 7.23 | COc1ccc2c(c1)C(=O)N(c1ccc3occc3c1)C2 [Example 119047] | – | – | – | – | – | 32 | 2.04 | 1.456 | – | – | 125.19
5.76 | 6.90 | COc1ccc2c(c1)C(=O)N(c1ccc3ncsc3c1)C2 [Example 120596] | – | – | – | – | 124.41 | 148 | 2.23 | 1.591 | – | – | –
6.46 | 7.16 | CCOc1ccc2c(c1)C(=O)N(c1ccc3c(ccn3C)c1)C2 [Example 121789] | – | – | – | – | – | – | 1.79 | 1.461 | – | 10 | –
